Source: ChEMBL document CHEMBL5614390, “Novel EGFR inhibitors against resistant L858R/T790M/C797S mutant for intervention of non-small cell lung cancer” (Eur J Med Chem, 2024)

Key:
MCF7 = experiment: cells; settings: Homo sapiens, MCF7, 72 h
Description: Cytotoxicity against human MCF7 cells assessed as inhibition of cell proliferation incubated for 72 hrs by CCK8 assay

HCC827 = experiment: cells; settings: Homo sapiens, HCC827, 72 h
Description: Cytotoxicity against human HCC827 cells expressing EGFR Del19 mutant assessed as inhibition of cell proliferation incubated for 72 hrs by CCK8 assay

PC-9 [1] = experiment: cells; settings: Homo sapiens, PC-9, 72 h
Description: Cytotoxicity against human PC-9 cells expressing EGFR Del19 mutant assessed as inhibition of cell proliferation incubated for 72 hrs by CCK8 assay

PC-9 [2] = experiment: cells; settings: Homo sapiens, PC-9, 72 h; remark: listed apart in the source
Description: Cytotoxicity against human PC-9 cells expressing EGFR L858R/T790M/C797S mutant assessed as inhibition of cell proliferation incubated for 72 hrs by CCK8 assay

NCI-H1975 = experiment: cells; settings: Homo sapiens, NCI-H1975, 72 h
Description: Cytotoxicity against human NCI-H1975 cells expressing EGFR L858R/T790M mutant assessed as inhibition of cell proliferation incubated for 72 hrs by CCK8 assay

PC-9 [3] = experiment: cells; settings: Homo sapiens, PC-9, 72 h; remark: listed apart in the source
Description: Cytotoxicity against human PC-9 cells expressing EGFR Del19/T790M/C797S mutant assessed as inhibition of cell proliferation incubated for 72 hrs by CCK8 assay

A-431 = experiment: cells; settings: Homo sapiens, A-431, 72 h
Description: Cytotoxicity against human A-431 cells assessed as inhibition of cell proliferation incubated for 72 hrs by CCK8 assay

PC-9 [4] = experiment: Induction of apoptosis in human PC-9 cells expressing EGFR L858R/T790M/C797S mutant assessed as early apoptotic cells at 1 uM incubated for 48 hrs by Annexin V-FITC/PI staining based flow cytometric analysis (reference value: 0.210 %); type: functional
PC-9 [5] = experiment: Induction of apoptosis in human PC-9 cells expressing EGFR Del19/T790M/C797S mutant assessed as early apoptotic cells at 1 uM incubated for 48 hrs by Annexin V-FITC/PI staining based flow cytometric analysis (reference value: 0.050 %); type: functional
PC-9 [6] = experiment: Induction of apoptosis in human PC-9 cells expressing EGFR L858R/T790M/C797S mutant assessed as late apoptotic cells at 1 uM incubated for 48 hrs by Annexin V-FITC/PI staining based flow cytometric analysis (reference value: 0.360 %); type: functional
PC-9 [7] = experiment: Induction of apoptosis in human PC-9 cells expressing EGFR Del19/T790M/C797S mutant assessed as viable cells at 1 uM incubated for 48 hrs by Annexin V-FITC/PI staining based flow cytometric analysis (reference value: 99.8 %); type: functional
PC-9 [8] = experiment: Induction of apoptosis in human PC-9 cells expressing EGFR L858R/T790M/C797S mutant assessed as viable cells at 1 uM incubated for 48 hrs by Annexin V-FITC/PI staining based flow cytometric analysis (reference value: 98.9 %); type: functional
PC-9 [9] = experiment: Induction of apoptosis in human PC-9 cells expressing EGFR L858R/T790M/C797S mutant assessed as necrotic cells at 1 uM incubated for 48 hrs by Annexin V-FITC/PI staining based flow cytometric analysis (reference value: 0.540 %); type: functional
PC-9 [10] = experiment: Induction of apoptosis in human PC-9 cells expressing EGFR Del19/T790M/C797S mutant assessed as necrotic cells at 1 uM incubated for 48 hrs by Annexin V-FITC/PI staining based flow cytometric analysis (reference value: 0.090 %); type: functional
PC-9 [11] = experiment: Induction of apoptosis in human PC-9 cells expressing EGFR Del19/T790M/C797S mutant assessed as late apoptotic cells at 1 uM incubated for 48 hrs by Annexin V-FITC/PI staining based flow cytometric analysis (reference value: 0.040 %); type: functional
PC-9 [12] = experiment: Antitumor activity against human PC-9 cells expressing EGFR L858R/T790M/C797S mutant xenografted in BALB/c nude mouse assessed as tumor growth inhibition at 40 mg/kg, po administered for 18 days relative to control; type: functional; settings: time 18 day

For C=CC(=O)Nc1cc(Nc2ncc(F)c(-c3ccc4cc(C(=O)NC)n(C(C)C)c4c3)n2)c(OC)cc1N1CCN(C)CC1, the IC50 (MCF7) was > 10000 nM, the IC50 (HCC827) was 1120 nM and the IC50 (PC-9 [1]) was 2090 nM. It also gave an IC50 (PC-9 [2]) of 1110 nM, an IC50 (NCI-H1975) of 1160 nM and an IC50 (PC-9 [3]) of 2190 nM. The IC50 (A-431) was > 10000 nM.

In the case of C=CC(=O)Nc1cc(Nc2ncc(F)c(-c3ccc4cc(C(=O)NC)n(C(C)C)c4c3)n2)ccc1N1CCN(C(C)C)CC1, the IC50 (MCF7) is reported as 459 nM, the IC50 (HCC827) is reported as 103 nM and the IC50 (PC-9 [1]) is reported as 147 nM. For the same molecule, the IC50 (PC-9 [2]) was 138 nM, the IC50 (NCI-H1975) was 150 nM and the IC50 (PC-9 [3]) was 258 nM. For the same molecule, the IC50 (A-431) was 46 nM.

Molecule C=CC(=O)Nc1cc(Nc2ncc(F)c(-c3ccc4cc(C(=O)N(C)C)n(C(C)C)c4c3)n2)ccc1N1CCN(C(C)C)CC1 has an IC50 (MCF7) of 875 nM, an IC50 (HCC827) of 692 nM and an IC50 (PC-9 [1]) of 122 nM. It also gave an IC50 (PC-9 [2]) of 380 nM, an IC50 (NCI-H1975) of 468 nM and an IC50 (PC-9 [3]) of 251 nM. It also gave an IC50 (A-431) of 441 nM.

C=CC(=O)Nc1cc(Nc2nccc(-c3cn(C)c4ccccc34)n2)c(OC)cc1N(C)CCN(C)C [OSIMERTINIB] showed an Activity (PC-9 [4]) of 4.73%, an IC50 (MCF7) of 3520 nM and an IC50 (HCC827) of 16 nM. The Activity (PC-9 [5]) was 3.39%, the Activity (PC-9 [6]) was 5.56% and the Activity (PC-9 [7]) was 85.5%. For the same molecule, the IC50 (PC-9 [1]) was 15 nM, the Activity (PC-9 [8]) was 89% and the Activity (PC-9 [9]) was 0.67%. The Activity (PC-9 [10]) was 4.73%, the Activity (PC-9 [11]) was 6.39% and the IC50 (PC-9 [3]) was 2790 nM. For the same molecule, the TGI (PC-9 [12]) was 30.9%.

C=CC(=O)Nc1cc(Nc2ncc(F)c(-c3ccc4cc(C(=O)NC)n(C(C)C)c4c3)n2)ccc1N(C)CCN(C)C gave an IC50 (MCF7) of 159 nM, an IC50 (HCC827) of 385 nM and an IC50 (PC-9 [1]) of 53 nM. The IC50 (PC-9 [2]) was 74 nM, the IC50 (NCI-H1975) was 44 nM and the IC50 (PC-9 [3]) was 48 nM. It also gave an IC50 (A-431) of 1020 nM.

C=CC(=O)Nc1cc(Nc2ncc(F)c(-c3ccc4cc(C(=O)N(C)C)n(C(C)C)c4c3)n2)ccc1N1CCN(C)CC1 was tested, and the IC50 (MCF7) was 4040 nM, the IC50 (HCC827) was 1290 nM and the IC50 (PC-9 [1]) was 1980 nM. For the same molecule, the IC50 (PC-9 [2]) was 2240 nM, the IC50 (NCI-H1975) was 1180 nM and the IC50 (PC-9 [3]) was 1960 nM. For the same molecule, the IC50 (A-431) was 4130 nM.

Molecule C=CC(=O)Nc1cc(Nc2ncc(F)c(-c3ccc4cc(C(=O)NC)n(C(C)C)c4c3)n2)c(OC)cc1N1CCN(C(C)C)CC1 has an IC50 (MCF7) of 3840 nM, an IC50 (HCC827) of 2180 nM and an IC50 (PC-9 [1]) of 1030 nM. It also gave an IC50 (PC-9 [2]) of 200 nM, an IC50 (NCI-H1975) of 474 nM and an IC50 (PC-9 [3]) of 2280 nM. It also gave an IC50 (A-431) of 4920 nM.
